{
  "source": "patent US20220016079A1",
  "about": "“COMBINATION TREATMENT OF HIV INFECTIONS” (priority 2018, published 2022)",
  "key": {"[1]": {"test_system": "latent HIV in resting CD4+ T-lymphocytes", "test": "HIV reactivation in resting CD4+ T-lymphocytes derived from ART-treated HIV patients (HIV RNA in supernatant, qPCR)", "format": "cell-based, human", "description": "The experiments of this example analyzed the ability of DEB10-1143 at reactivating latent HIV in resting CD4+ T-lymphocytes isolated from peripheral blood monocytic cells (PBMCs) derived from HIV patients currently under ART. Drug titration and kinetic studies were conducted. Debio-1143 was tested alone or in combination with ART.\nMethod: Resting CD4+ T cells were isolated using the EasySep™ Human Resting CD4+ T Cell Isolation Kit, which is designed to isolate resting CD4+ T cells from fresh or previously frozen PBMCs by immunomagnetic negative selection. The EasySep™ procedure involves labeling unwanted cells with antibody complexes and magnetic particles. The magnetically labeled cells are separated from the untouched desired cells by using an EasySep™ magnet and simply pouring or pipetting the desired cells into a new tube. Isolated resting CD4+ T cells (50,000 cells/50 μL) were treated in duplicate for 0, 24, 48 and 72 h with increasing concentrations of DEB10-1143 (0 to 20.5 μM) used alone or in combination with ART (20 μM TDF, 10 μM FTC and 1 μM Raltegravir). Amounts of virions released from cells were quantified at the indicated time points by quantifying HIV RNA levels (HIV RNA copies/mL) in supernatant of cell culture using one-step reverse transcriptase quantitative real-time PCR (ABI custom TaqMan Assays-by-Design) according to the manufacturer's instructions. Primers were 5-[…]-3 and 5-[…]-3, and MGB probe 5-FAM-[…]-Q-3, where FAM is 6-carboxyfluorescein."}, "[2]": {"test_system": "latent HIV in JLat 10.6-GFP, 2D10 and 5A8 cells", "test": "HIV reactivation using latent reporter cell lines (GFP expression by flow cytometry)", "format": "cell-based, human", "description": "The experiment analyzed the ability of DEB10-1143 at reactivating latent HIV using three well-characterized latent T cell lines—JLat 10.6-GFP, 2D10 and 5A8 (Jordan A, Bisgrove D, Verdin E (2003) EMBO J 22(8): 1868-1877. doi: 10.1093/emboj/cdg188. PMID: 12682019; Sakane N, Kwon HS, Pagans S, Kaehlcke K, Mizusawa Y, Kamada M, et al. (2011) PLoS Pathog 7(8): e1002184. PMID: 21876670; Pearson R, Kim Y K, Hokello J, Lassen K, Friedman J, Tyagi M, et al. (2008) J Virol 82(24): 12291-12303. PMID: 18829756). These cell lines contain part of the HIV genome and the GFP reporter gene and are unable to produce infective HIV particles. Drug titration and kinetic studies were conducted. Debio-1143 was tested alone or in combination with the current antiretroviral therapy (ART), consisting of 20 μM tenofovir disoproxil fumarate [TDF], 10 μM emtricitabine [FTC] and 1 μM raltegravir [RAL]. ART and DEB10-1143 were added simultaneously to cells.\nMethod: Cells (100,000 cells/100 μL) were treated in triplicate for 0 and 72 h with increasing concentrations of DEB10-1143 (0 to 20.5 μM) used alone or in combination with ART (see above). ART and DEB10-1143 were added simultaneously to cells. Cells were analyzed for GFP expression by flow cytometry at the indicated time points counting all cells per replicate, and reported as % GFP+cells."}, "[3]": {"test_system": "latent HIV-1 in resting CD4+ T cells", "test": "Ex vivo HIV-1 reactivation in human resting CD4+ T cells from ART-treated HIV-1-infected humanized BLT mice (HIV RNA in supernatant)", "format": "cell-based", "description": "The efficacy of IAPa, ICI or IAPa/ICI combinations in reversing HIV-1 latency was tested in resting CD4+ T cells derived from ART-treated HIV-1-infected humanized BLT mice.\nHuman resting CD4+ T cells from ten mice were isolated from blood, thymic organoid, lung, spleen, bone marrow, lymph nodes and liver. Isolated human resting CD4+ T cells were pooled, counted, split and treated in duplicate for 48 h with different IAPa (1 μM) or ICI (10 μg/ml) in monotherapy, or the IAPa/ICI combinations. Amounts of virions released from cells were quantified at the indicated time points by quantifying HIV RNA levels (HIV RNA copies/mL) in supernatant of cell culture using one-step reverse transcriptase quantitative real-time PCR (ABI custom TaqMan Assays-by-Design) according to the manufacturer's instructions. Primers were 5-[…]-3 and 5-[…]-3, and MGB probe 5-FAM-[…]-Q-3, where FAM is 6-carboxyfluorescein.\nThe experiment was carried out using the same agents as described above for Example 8.1 (with the exception that no birinapant was used)."}},
  "data": [
    {"smiles": "CN[C@@H](C)C(=O)N[C@H]1CN(C(=O)CC(C)C)CC[C@H]2CC[C@@H](C(=O)NC(c3ccccc3)c3ccccc3)N2C1=O", "note": "[Debio 1143, (5S,8S,10aR)-N-benzhydryl-5-((S)-2-(methylamino)propanamido)-3-(3-methylbutanoyl)-6-oxodecahydropyrrolo[1,2-a][1,5]diazocine-8-carboxamide]", "values": [
      {"measurement": "influence of ART on the degree of latency reversal", "setting": "[1]; in combination with ART (20 μM TDF, 10 μM FTC, 1 μM Raltegravir)", "value": "did not influence"},
      {"measurement": "time after which reactivation was already maximal", "setting": "[1]; resting CD4+ T cells from two HIV patients under ART", "value": "≤ 24", "unit": "h"},
      {"measurement": "reactivation of latent HIV (HIV RNA copies/mL in supernatant)", "setting": "[1]; resting CD4+ T cells from two HIV patients under ART, 0 to 20.5 μM, 0-72 h", "value": "possesses the capacity of reactivating latent HIV"},
      {"measurement": "degree of HIV reactivation, comparison of cell lines", "setting": "[2]; 2D10 cells compared to the two other cell lines", "value": "shows the best degree of HIV reactivation"},
      {"measurement": "influence of ART on the degree of latency reversal", "setting": "[2]; in combination with ART (20 μM TDF, 10 μM FTC, 1 μM RAL), added simultaneously", "value": "does not influence"},
      {"measurement": "HIV reactivation (% GFP+ cells)", "setting": "[2]; single agent, 0 to 20.5 μM, 72 h, JLat 10.6-GFP, 2D10 and 5A8 cells", "value": "possesses the capacity of activating latent HIV"},
      {"measurement": "latency reversal class (HIV RNA copies/ml in supernatant)", "setting": "[3]; IAPa 1 μM monotherapy (0.1% DMSO, no ICI), 48 h", "value": "2 (Between 2501 and 5000 RNA copies/ml were classified as “2”)"},
      {"measurement": "latency reversal class (HIV RNA copies/ml in supernatant)", "setting": "[3]; IAPa 1 μM with Control IgG1, 48 h", "value": "2 (Between 2501 and 5000 RNA copies/ml were classified as “2”)"},
      {"measurement": "latency reversal class (HIV RNA copies/ml in supernatant)", "setting": "[3]; IAPa 1 μM with Control IgG2, 48 h", "value": "2 (Between 2501 and 5000 RNA copies/ml were classified as “2”)"}
    ]}
  ]
}
